Reference: patent US12617779B2, “Self degradation-type CDK9 inhibitor prodrug and liposome encapsulating same” (Sumitomo Pharma Co., Ltd., priority 2021, dated 2026)
Each block holds one molecule with its values, some of them ahead of it.

Assay: Evaluation of conversion rate to active form in buffer solution (Experimental Example 1)
Type: physicochemical
Description: For Examples 1 to 16 and Comparative Examples 1 to 14, the attrition rate of the test compound and the conversion rate of the test compound to Alvocidib in a buffer solution were calculated by the following method.
Examples 1 to 16 and Comparative Examples 1 to 14 were each left in buffer solutions adjusted to pH 5.0, 5.5, 6.0, 6.5, 7.0 and 7.4, respectively, at a concentration of 25 umol/L at 37° C. After 0, 0.5, 1, 2 and 3 hours, the residual rates of the compounds of Examples […] and the production rate of Alvocidib were determined by HPLC.
The buffer solutions used at each pH are as follows. • pH 5.0: 50 mM citrate buffer solution (pH 5.0) • pH 5.5: 50 mM citrate buffer solution (pH 5.5) • pH 6.0: 50 mM phosphate buffer solution (pH 6.0) • pH 6.5: 50 mM phosphate buffer solution (pH 6.5) • pH 7.0: 50 mM phosphate buffer solution (pH 7.0) • pH 7.4: 50 mM phosphate buffer solution (pH 7.4)
The measurement conditions for HPLC are as follows.

[1] = pH5.0, 0 hr, 37° C., 25 umol/L in buffer solution
[2] = pH5.0, 0.5 hr, 37° C., 25 umol/L in buffer solution
[3] = pH5.0, 1 hr, 37° C., 25 umol/L in buffer solution
[4] = pH5.0, 2 hr, 37° C., 25 umol/L in buffer solution
[5] = pH5.0, 3 hr, 37° C., 25 umol/L in buffer solution
[6] = pH5.5, 0 hr, 37° C., 25 umol/L in buffer solution
[7] = pH5.5, 0.5 hr, 37° C., 25 umol/L in buffer solution
[8] = pH5.5, 1 hr, 37° C., 25 umol/L in buffer solution
[9] = pH5.5, 2 hr, 37° C., 25 umol/L in buffer solution
[10] = pH5.5, 3 hr, 37° C., 25 umol/L in buffer solution
[11] = pH6.0, 0 hr, 37° C., 25 umol/L in buffer solution
[12] = pH6.0, 0.5 hr, 37° C., 25 umol/L in buffer solution
[13] = pH6.0, 1 hr, 37° C., 25 umol/L in buffer solution
[14] = pH6.0, 2 hr, 37° C., 25 umol/L in buffer solution
[15] = pH6.0, 3 hr, 37° C., 25 umol/L in buffer solution
[16] = pH6.5, 0 hr, 37° C., 25 umol/L in buffer solution
[17] = pH6.5, 0.5 hr, 37° C., 25 umol/L in buffer solution
[18] = pH6.5, 1 hr, 37° C., 25 umol/L in buffer solution
[19] = pH6.5, 2 hr, 37° C., 25 umol/L in buffer solution
[20] = pH6.5, 3 hr, 37° C., 25 umol/L in buffer solution
[21] = pH7.0, 0 hr, 37° C., 25 umol/L in buffer solution
[22] = pH7.0, 0.5 hr, 37° C., 25 umol/L in buffer solution
[23] = pH7.0, 1 hr, 37° C., 25 umol/L in buffer solution
[24] = pH7.0, 2 hr, 37° C., 25 umol/L in buffer solution
[25] = pH7.0, 3 hr, 37° C., 25 umol/L in buffer solution
[26] = pH7.4, 0 hr, 37° C., 25 umol/L in buffer solution
[27] = pH7.4, 0.5 hr, 37° C., 25 umol/L in buffer solution
[28] = pH7.4, 1 hr, 37° C., 25 umol/L in buffer solution
[29] = pH7.4, 2 hr, 37° C., 25 umol/L in buffer solution
[30] = pH7.4, 3 hr, 37° C., 25 umol/L in buffer solution

Production rate of Alvocidib (pH5.0, 0 hr): 0.0%
Residual rate (pH5.0, 0 hr): 93.9%
Production rate of Alvocidib (pH5.0, 0.5 hr): 0.0%
Residual rate (pH5.0, 0.5 hr): 93.5%
Production rate of Alvocidib (pH5.0, 1 hr): 0.0%
Residual rate (pH5.0, 1 hr): 93.4%
Production rate of Alvocidib (pH5.0, 2 hr): 0.0%
Residual rate (pH5.0, 2 hr): 93.9%
Production rate of Alvocidib (pH5.0, 3 hr): 0.0%
Residual rate (pH5.0, 3 hr): 93.9%
Production rate of Alvocidib (pH5.5, 0 hr): 0.0%
Residual rate (pH5.5, 0 hr): 93.9%
Production rate of Alvocidib (pH5.5, 0.5 hr): 0.0%
Residual rate (pH5.5, 0.5 hr): 93.8%
Production rate of Alvocidib (pH5.5, 1 hr): 0.0%
Residual rate (pH5.5, 1 hr): 93.8%
Production rate of Alvocidib (pH5.5, 2 hr): 0.0%
Residual rate (pH5.5, 2 hr): 94.0%
Production rate of Alvocidib (pH5.5, 3 hr): 0.0%
Residual rate (pH5.5, 3 hr): 93.6%
Production rate of Alvocidib (pH6.0, 0 hr): 0.0%
Residual rate (pH6.0, 0 hr): 93.5%
Production rate of Alvocidib (pH6.0, 0.5 hr): 0.0%
Residual rate (pH6.0, 0.5 hr): 94.0%
Production rate of Alvocidib (pH6.0, 1 hr): 0.0%
Residual rate (pH6.0, 1 hr): 93.5%
Production rate of Alvocidib (pH6.0, 2 hr): 0.0%
Residual rate (pH6.0, 2 hr): 93.9%
Production rate of Alvocidib (pH6.0, 3 hr): 0.0%
Residual rate (pH6.0, 3 hr): 94.0%
Production rate of Alvocidib (pH6.5, 0 hr): 0.0%
Residual rate (pH6.5, 0 hr): 93.5%
Production rate of Alvocidib (pH6.5, 0.5 hr): 0.0%
Residual rate (pH6.5, 0.5 hr): 93.9%
Production rate of Alvocidib (pH6.5, 1 hr): 0.0%
Residual rate (pH6.5, 1 hr): 93.6%
Production rate of Alvocidib (pH6.5, 2 hr): 0.0%
Residual rate (pH6.5, 2 hr): 93.5%
Production rate of Alvocidib (pH6.5, 3 hr): 0.0%
Residual rate (pH6.5, 3 hr): 93.5%
Production rate of Alvocidib (pH7.0, 0 hr): 0.0%
Residual rate (pH7.0, 0 hr): 93.9%
Production rate of Alvocidib (pH7.0, 0.5 hr): 0.0%
Residual rate (pH7.0, 0.5 hr): 93.4%
Production rate of Alvocidib (pH7.0, 1 hr): 0.0%
Residual rate (pH7.0, 1 hr): 93.8%
Production rate of Alvocidib (pH7.0, 2 hr): 0.0%
Residual rate (pH7.0, 2 hr): 93.9%
Production rate of Alvocidib (pH7.0, 3 hr): 0.0%
Residual rate (pH7.0, 3 hr): 93.3%
Production rate of Alvocidib (pH7.4, 0 hr): 0.0%
Residual rate (pH7.4, 0 hr): 93.3%
Conversion to Alvocidib at pH 7.4 (pH 7.4, 37° C., up to 3 hours): slowly converted to Alvocidib
Production rate of Alvocidib (pH7.4, 0.5 hr): 0.0%
Residual rate (pH7.4, 0.5 hr): 93.9%
Production rate of Alvocidib (pH7.4, 1 hr): 0.0%
Residual rate (pH7.4, 1 hr): 93.9%
Production rate of Alvocidib (pH7.4, 2 hr): 0.0%
Residual rate (pH7.4, 2 hr): 93.4%
Production rate of Alvocidib (pH7.4, 3 hr): 0.0%
Residual rate (pH7.4, 3 hr): 93.4%
Compound: CNC(=O)O[C@@H]1CN(C)CC[C@@H]1c1c(O)cc(O)c2c(=O)cc(-c3ccccc3Cl)oc12 [Comparative Example 5, reference compound]

Compound: CCNC(=O)Oc1cc(O)c2c(=O)cc(-c3ccccc3Cl)oc2c1[C@H]1CCN(C)C[C@H]1O [Comparative Example 1, reference compound]
Production rate of Alvocidib [1]: 8.4%
Residual rate [1]: 91.6%
Stability in buffer solution at pH 5 (pH 5, 37° C., up to 2 or 3 hours): unstable
Conversion to Alvocidib at pH 5 within 3 hours (pH 5, 37° C., within 3 hours): mostly converted to Alvocidib
Production rate of Alvocidib [2]: 37.9%
Residual rate [2]: 62.1%
Production rate of Alvocidib [3]: 58.5%
Residual rate [3]: 41.5%
Production rate of Alvocidib [4]: 82.1%
Residual rate [4]: 17.9%
Production rate of Alvocidib [5]: 91.8%
Residual rate [5]: 8.2%
Production rate of Alvocidib [6]: 8.8%
Residual rate [6]: 91.2%
Production rate of Alvocidib [7]: 74.7%
Residual rate [7]: 25.3%
Production rate of Alvocidib [8]: 92.7%
Residual rate [8]: 7.3%
Production rate of Alvocidib [9]: 98.9%
Residual rate [9]: 1.1%
Production rate of Alvocidib [10]: 99.3%
Residual rate [10]: 0.7%
Production rate of Alvocidib [11]: 10.1%
Residual rate [11]: 89.9%
Production rate of Alvocidib [12]: 96.3%
Residual rate [12]: 3.7%
Production rate of Alvocidib [13]: 98.3%
Residual rate [13]: 1.5%
Production rate of Alvocidib [14]: 98.5%
Residual rate [14]: 1.3%
Production rate of Alvocidib [15]: 99.0%
Residual rate [15]: 1.0%
Production rate of Alvocidib [16]: 12.9%
Residual rate [16]: 87.1%
Production rate of Alvocidib [17]: 98.7%
Residual rate [17]: 1.3%
Production rate of Alvocidib [18]: 99.0%
Residual rate [18]: 1.0%
Production rate of Alvocidib [19]: 98.9%
Residual rate [19]: 1.1%
Production rate of Alvocidib [20]: 99.2%
Residual rate [20]: 0.8%
Production rate of Alvocidib [21]: 22.2%
Residual rate [21]: 77.8%
Production rate of Alvocidib [22]: 99.0%
Residual rate [22]: 1.0%
Production rate of Alvocidib [23]: 99.1%
Residual rate [23]: 0.9%
Production rate of Alvocidib [24]: 98.8%
Residual rate [24]: 1.0%
Production rate of Alvocidib [25]: 99.1%
Residual rate [25]: 0.9%
Production rate of Alvocidib [26]: 40.2%
Residual rate [26]: 59.8%
Production rate of Alvocidib [27]: 99.1%
Residual rate [27]: 0.9%
Production rate of Alvocidib [28]: 98.9%
Residual rate [28]: 1.1%
Production rate of Alvocidib [29]: 99.1%
Residual rate [29]: 1.0%
Production rate of Alvocidib [30]: 99.3%
Residual rate [30]: 0.7%
